# Results published in US11180504B2 (ORCHID PHARMA LTD., priority 2016, dated 2021).
# Tests used:
# [1] = test system: methicillin-sensitive Staphylococcus aureus; assay: MIC by broth micro-dilution (CLSI), methicillin-sensitive S. aureus; assay type: cell-based; conditions: Staphylococcus aureus, ATCC 29213 / MSSA, MSSA S. aureus ATCC29213; read-out: MIC
# [2] = test system: carbapenem sensitive Escherichia coli; assay: MIC by broth micro-dilution (CLSI), carbapenem sensitive E. coli; assay type: cell-based; conditions: Escherichia coli, ATCC25922, ESBL −ve E. coli ATCC25922; read-out: MIC
# [3] = test system: extended spectrum β lactamase (ESBL) SHV18 producing Klebsiella pneumoniae; assay: MIC by broth micro-dilution (CLSI), ESBL SHV18 producing K. pneumoniae; assay type: cell-based; conditions: Klebsiella pneumoniae, ATCC700603, 22 h, ESBL +ve (SHV-18) K. pneumoniae ATCC700603; read-out: MIC
# [4] = test system: carbapenemase producing K. pneumoniae; assay: MIC by broth micro-dilution (CLSI), carbapenemase producing K. pneumoniae; assay type: cell-based, Klebsiella pneumoniae; conditions: Klebsiella pneumoniae, ATCCBAA1705, KPC-2 K. pneumoniae ATCC BAA-1705; read-out: MIC
# [5] = test system: carbapenem sensitive Pseudomonas aeruginosa; assay: MIC by broth micro-dilution (CLSI), carbapenem sensitive P. aeruginosa; assay type: cell-based; conditions: Pseudomonas aeruginosa, ATCC27853, Meropenem susceptible P. aeruginosa ATCC27853; read-out: MIC
Structure (SMILES),MIC [1],MIC [2],MIC [3],MIC [4],MIC [5]
C[C@@H](NC(=O)C(F)F)[C@H]1C(=O)N2C(C(=O)O)=C(S[C@@H]3CN[C@H](C(=O)N4C[C@@H](N)C[C@H]4C(=O)N(C)C)C3)[C@H](C)[C@H]12 [Example 142],4 to 8 µg/mL,1 µg/mL,8 µg/mL,8 µg/mL,16 to 32 µg/mL
C[C@@H](Oc1ccon1)[C@H]1C(=O)N2C(C(=O)O)=C(S[C@@H]3CN[C@H](C(=O)N(C)C)C3)[C@H](C)[C@H]12 [Example 187],4 µg/mL,2 µg/mL,8 µg/mL,64 µg/mL,128 µg/mL
C[C@@H](NC(=O)C(F)F)[C@H]1C(=O)N2C(C(=O)O)=C(S[C@@H]3CN[C@H](C(=O)N4CC[C@H](NC(=O)CNC(=N)N)C4)C3)[C@H](C)[C@H]12 [Example 196],2 µg/mL,1 µg/mL,4 µg/mL,8 µg/mL,32 µg/mL
C[C@@H](NC(=O)CC#N)[C@H]1C(=O)N2C(C(=O)O)=C(S[C@@H]3CN[C@H](C(=O)N(C)C)C3)[C@H](C)[C@H]12 [Example 128],16 µg/mL,4 µg/mL,8 µg/mL,8 µg/mL,64 µg/mL
C[C@@H](NC(=O)[C@H]1CCCN1)[C@H]1C(=O)N2C(C(=O)O)=C(S[C@@H]3CN[C@H](C(=O)N4CC[C@@H](N)C4)C3)[C@H](C)[C@H]12 [Example 206],64 µg/mL,4 µg/mL,4 µg/mL,4 µg/mL,4 µg/mL
CCOC(=O)C(=O)N[C@H](C)[C@H]1C(=O)N2C(C(=O)O)=C(S[C@@H]3CN[C@H](C(=O)N4CC[C@H](N)C4)C3)[C@H](C)[C@H]12 [Example 109],8 µg/mL,4 µg/mL,4 µg/mL,16 µg/mL,4 µg/mL
C[C@@H](NC(=O)CO)[C@H]1C(=O)N2C(C(=O)O)=C(S[C@@H]3CN[C@H](C(=O)N(C)C)C3)[C@H](C)[C@H]12 [Example 60],32 µg/mL,16 µg/mL,32 µg/mL,64 µg/mL,> 128 µg/mL
C[C@@H](NC(=O)C(F)F)[C@H]1C(=O)N2C(C(=O)O)=C(S[C@@H]3CN[C@H](C(=O)N[C@@H]4CCNC4)C3)[C@H](C)[C@H]12 [Example 130],2 µg/mL,1 µg/mL,8 µg/mL,4 µg/mL,32 µg/mL
C[C@@H](NC(=O)C(F)F)[C@H]1C(=O)N2C(C(=O)O)=C(S[C@@H]3CN[C@H](C(=O)N4CC[C@H](ON)C4)C3)[C@H](C)[C@H]12 [Example 148],1 to 2 µg/mL,0.5 µg/mL,1 µg/mL,2 to 4 µg/mL,32 to 64 µg/mL
C[C@@H](NC(=O)CNC1CC1)[C@H]1C(=O)N2C(C(=O)O)=C(S[C@@H]3CN[C@H](C(=O)N4CC[C@@H](N)C4)C3)[C@H](C)[C@H]12 [Example 197],16 µg/mL,4 µg/mL,16 µg/mL,16 µg/mL,32 µg/mL
COCC(=O)N[C@H](C)[C@H]1C(=O)N2C(C(=O)O)=C(S[C@@H]3CN[C@H](C(=O)N(C)C)C3)[C@H](C)[C@H]12 [Example 21],2 µg/mL,2 µg/mL,4 µg/mL,4 to 16 µg/mL,> 128 µg/mL
CNC(=O)[C@@H]1C[C@H](N)CN1C(=O)[C@@H]1C[C@H](SC2=C(C(=O)O)N3C(=O)[C@H]([C@@H](C)NC(=O)C(F)F)[C@H]3[C@H]2C)CN1 [Example 141],4 to 8 µg/mL,1 µg/mL,4 to 8 µg/mL,4 to 8 µg/mL,64 µg/mL
CCOC(=S)N[C@H](C)[C@H]1C(=O)N2C(C(=O)O)=C(S[C@@H]3CN[C@H](C(=O)N(C)C)C3)[C@H](C)[C@H]12 [Example 20],2 µg/mL,1 µg/mL,8 µg/mL,16 µg/mL,128 µg/mL
C[C@@H](NC(=O)C(F)F)[C@H]1C(=O)N2C(C(=O)O)=C(S[C@@H]3CN[C@H](C(=O)N4CCSCC4)C3)[C@H](C)[C@H]12 [Example 35],1 µg/mL,1 µg/mL,4 µg/mL,2 to 4 µg/mL,> 128 µg/mL
C[C@@H](NC(=O)CCN)[C@H]1C(=O)N2C(C(=O)O)=C(S[C@@H]3CN[C@H](C(=O)N(C)C)C3)[C@H](C)[C@H]12 [Example 165],64 µg/mL,2 µg/mL,4 µg/mL,2 µg/mL,32 µg/mL
C[C@@H]1CN(C(=O)[C@@H]2C[C@H](SC3=C(C(=O)O)N4C(=O)[C@H]([C@@H](C)NC(=O)C(F)F)[C@H]4[C@H]3C)CN2)CCN1 [Example 135],2 µg/mL,1 µg/mL,4 µg/mL,4 µg/mL,8 µg/mL
C[C@@H](NC(=O)C(F)F)[C@H]1C(=O)N2C(C(=O)O)=C(S[C@@H]3CN[C@H](C(=O)N4CC[N+](C)(CC(N)=O)CC4)C3)[C@H](C)[C@H]12 [Example 46],1 µg/mL,1 µg/mL,4 µg/mL,8 µg/mL,16 µg/mL
CNC(=O)C(=O)N[C@H](C)[C@H]1C(=O)N2C(C(=O)O)=C(S[C@@H]3CN[C@H](C(=O)N(C)C)C3)[C@H](C)[C@H]12 [Example 75],4 µg/mL,1 µg/mL,8 µg/mL,16 µg/mL,> 128 µg/mL
CONC(=O)CCNC(=O)[C@@H]1C[C@H](SC2=C(C(=O)O)N3C(=O)[C@H]([C@@H](C)NC(=O)C(F)F)[C@H]3[C@H]2C)CN1 [Example 115],8 µg/mL,0.5 µg/mL,2 µg/mL,8 µg/mL,> 128 µg/mL
CC(C)CC(F)(F)C(=O)N[C@H](C)[C@H]1C(=O)N2C(C(=O)O)=C(S[C@@H]3CN[C@H](C(=O)N(C)C)C3)[C@H](C)[C@H]12 [Example 83],2 µg/mL,64 µg/mL,> 128 µg/mL,> 128 µg/mL,> 128 µg/mL
CNC[C@@H]1C[C@H](N)CN1C(=O)[C@@H]1C[C@H](SC2=C(C(=O)O)N3C(=O)[C@H]([C@@H](C)NC(=O)C(F)F)[C@H]3[C@H]2C)CN1 [Example 185],2 µg/mL,2 µg/mL,64 µg/mL,16 µg/mL,64 µg/mL
C[C@@H](NC(=O)C(F)F)[C@H]1C(=O)N2C(C(=O)O)=C(S[C@@H]3CN[C@H](C(=O)N4CCN(C(=N)N)CC4)C3)[C@H](C)[C@H]12 [Example 157],2 µg/mL,1 µg/mL,8 µg/mL,4 µg/mL,4 µg/mL
C[C@@H](NC(=O)C(F)F)[C@H]1C(=O)N2C(C(=O)O)=C(S[C@@H]3CN[C@H](C(=O)N4CC[C@@H](CN)C4)C3)[C@H](C)[C@H]12 [Example 219],2 µg/mL,1 µg/mL,4 µg/mL,4 µg/mL,4 µg/mL
C[C@@H](NC(=O)C(F)F)[C@H]1C(=O)N2C(C(=O)O)=C(S[C@@H]3CN[C@H](C(=O)N4CC[C@H](N)C4)C3)[C@H](C)[C@H]12 [Example 103],0.5 µg/mL,0.5 µg/mL,4 µg/mL,8 µg/mL,8 µg/mL
C[C@@H](NC(=O)C(F)F)[C@H]1C(=O)N2C(C(=O)O)=C(S[C@@H]3CN[C@H](C(=O)N4CC[C@@H](NC(=O)CN)C4)C3)[C@H](C)[C@H]12 [Example 160],4 µg/mL,1 µg/mL,8 µg/mL,8 µg/mL,16 µg/mL
CNCC(=O)N[C@@H]1CCN(C(=O)[C@@H]2C[C@H](SC3=C(C(=O)O)N4C(=O)[C@H]([C@@H](C)NC(=O)C(F)F)[C@H]4[C@H]3C)CN2)C1 [Example 155],2 µg/mL,1 µg/mL,8 µg/mL,8 µg/mL,32 µg/mL
